Experiments:
[1] = cited from earlier work
[2] = via conversion to 4-androstenediol; stated as well known; cited from earlier work
[3] = regular (non-esterified) 19 Nor-DHEA; cited from earlier work
[4] = Bioavailability / half-life of 19 Nor-DHEA forms; assay type: in vivo; details: compared with regular 19 Nor-DHEA

C[C@]12C=CC(O)CC1CC[C@@H]1[C@@H]2CC[C@]2(C)C(=O)CC[C@@H]12 (some centres unmarked) [1-DHEA]
conversion rate to 1-testosterone ([1]; stated as generally known): less than 2%

C[C@]12CC[C@H](O)C=C1CC[C@@H]1[C@@H]2CC[C@]2(C)C(=O)CC[C@@H]12 [4-DHEA]
anabolic potency compared with regular DHEA [2]: more than two times greater

C[C@]12CC[C@H]3[C@@H](CC=C4C[C@@H](O)CC[C@@H]43)[C@@H]1CCC2=O [19 Nor-DHEA]
half-life [3]: very short half-life

C[C@]12CC[C@H](O)CC1=CC[C@@H]1[C@@H]2CC[C@]2(C)C(=O)CC[C@@H]12 [DHEA, dehydroepiandrosterone]
conversion rate to testosterone ([1]; stated as well known): ~1%

CCCCCCC(=O)O[C@@H]1C=C2CC[C@@H]3[C@H](CC[C@]4(C)C(=O)CC[C@@H]34)[C@H]2CC1 [enanthated 19 Nor-DHEA, 3b-enanthoxy-19-nor-androst-4-ene-17-one]
bioavailability [4]: improved bioavailability

Source: patent US20170304317A1, “DIETARY S[…] MUSCLE GROWTH AND STRENGTH” (priority 2015, published 2017)
